Structures can show the parent of a compound that is named as a salt. Where two headings read alike, the source gives them in different places.
Key:
[1] = test system: MPP^+ uptake to the striatatal synaptosones; test: MPP+ uptake to striatal synaptosomes; assay type: biochemical; conditions: for IC50: striatal synaptosomes; for uptake inhibitory potency: potential metabolites
Protocol: (§1) 3.) The potential metabolites of deprenyl and p-fluoro-deprenyl, (methylamphetamine, amphetamine and p-fluoro-methylamphetamine, p-fluoro-amphetamine, respectively) have a significant uptake inhibitory potency; they can prevent in vivo the MPTP neurotoxicity without the development of a high degree of MAO inhibition. The tests were carried out according to the method of Heikilla [Nature, 311, 467-469 (1984)].

[2] = test system: DA uptake, rat brain synaptosomas, STRIATUM; test: In vitro DA uptake inhibition on brain synaptosomes (striatum); assay type: biochemical
[3] = test system: NA uptake, rat brain synaptosomas, HYPOTHALAMUS; test: In vitro NA uptake inhibition on brain synaptosomes (hypothalamus); assay type: biochemical
DSP-4 neurotoxicity [4] = test: Interaction of deprenyl and p-fluoro-deprenyl metabolites with DSP-4 neurotoxicity; assay type: in vivo, rats; conditions: for prevention of DSP-4 induced neurotoxicity in vivo: dose of 1-5 mg/kg i.p., without development of MAO inhibition
Protocol: The tests were carried out according to the method of Finnegan [Finnegan et al., Eur. J. Pharmacol., 184, 119-126, (1990)].

[5] = test system: MPTP induced neuronal damage; conditions: literature; cited from earlier work
MAO-A [6] = test: Inhibition of MAO activity in brain nucleus free homogenates, 14C-5-HT substrate; assay type: in vivo, domestic pig; conditions: pig; p. os 96 h; UG-111 48 h (patch 24 h); UG-167 72 h (patch 48 h); UG-191 96 h (patch 72 h)
Protocol: (§2) MAO activity was measured radiometrically according to the methods of Wurtman and Axelrod [Biochem. Pharmacol. 12. 1414-19; (1963)] with a slight modification [K. Magyar in: Monoamine Oxidases and their Selective Inhibition, Ed.: K. Magyar, Pergamon Press, Akademiai Kiado, Budapest, 11-21; (1980)].

DSP-4 neurotoxicity [7] = test: Inhibition of DSP-4 neurotoxicity after oral deprenyl formulations (hippocampus noradrenaline, survival); assay type: in vivo; conditions: 3 mg/kg p.o.; 50 mg/kg DSP-4 ip.; rats
Protocol: The inhibition of DSP-4 neurotoxicity was measured in rats. For treating rats the schedule of Finnegan was followed [Finnegan et al., Eur. J. Pharmacol., 184, 119-126, (1990)].
Wistar male rats, weighing 170-200 g were used. Animals were housed six to a cage under constant temperature (22° C.), in a room illuminated 12 h per day. Food and water were freely available. Rats were pretreated orally with 3 mg/kg of the combination of example 3 (1 mg/kg "fast" (F)+2 mg/kg "slow" (S)), 1, 2, 4 and 8 hours before DSP-4 treatment (50 mg/kg; intraperitoneally).
Each hippocampus of the rats […].

MAO-A [8] = test: Inhibition of MAO activity in liver, 14C-5-HT substrate; assay type: in vivo, domestic pig; conditions: pig; times as for brain; where three numbers are printed, apparently single animals
Protocol: as §2

DSP-4 induced toxicity = conditions: literature; cited from earlier work
MPTP neurotoxicity = MPTP neurotoxicity (dopamine, DOPAC, HVA levels); assay type: in vivo; set-up: DOPAC: unit not given beside the values; conditions: for prevention of MPTP neurotoxicity in vivo: without a high degree of MAO inhibition
Protocol: as §1

[9] = Distribution of labelled deprenyl and p-fluoro-deprenyl in brain regions and plasma after oral administration; assay type: in vivo; conditions: rats, deprenyl […], p-fluoro-deprenyl 10 mg/kg
Source text: The simultaneous presence and the equal quantities of the two labels indicate the unchanged molecule (the data relate to the molar concentrations calculated on the basis of the two labels).

[10] = pretreatment 10 mg/kg i.p., DSP-4 50
[11] = read-out: In vitro uptake inhibition DA STRIATUM
[12] = pretreatment 1 mg/kg i.p., DSP-4 50
[13] = pretreatment 5 mg/kg i.p., DSP-4 30
[14] = 1. treatment MPTP, 2. treatment the substance (MPTP: phys.s.)
[15] = 1. treatment MPTP, 2. treatment the substance (MPTP: phys.s.), % of physiological salt control
[16] = 1. treatment MPTP, 2. treatment the substance (MPTP: phys.s.), time between treatments 30
[17] = 1. treatment the substance, 2. treatment MPTP
[18] = 1. treatment the substance, 2. treatment MPTP, % of physiological salt control

CC(N)Cc1ccc(F)cc1 (single isomer, unassigned; (+)) [(+)-p-F-amphetamine]
IC50 [1]: 0.1 µM

CNC(C)Cc1ccc(F)cc1 (single isomer, unassigned; (+)) [(+)-p-F-metamphetamine]
IC50 ([2]; read-out: In vitro uptake inhibition DA STRIATUM, listed as (+)-p-FLUORO-MA): 23 µM
IC50 [1]: 1.3 µM
IC50 ([3]; listed as (+)-p-FLUORO-MA): 7.7 µM

CC(N)Cc1ccc(F)cc1 (single isomer, unassigned; (-)) [(-)-p-F-amphetamine]
IC50 [1]: 0.72 µM

CNC(C)Cc1ccc(F)cc1 (single isomer, unassigned; (-)) [(-)-p-F-metamphetamine]
Survival % (DSP-4 neurotoxicity [4]; [10]): 0%
IC50 ([2]; read-out: In vitro uptake inhibition DA STRIATUM, listed as (-)-p-FLUORO-MA): 300 µM
IC50 [1]: 1.3 µM
IC50 ([3]; listed as (-)-p-FLUORO-MA): 7.5 µM

C#CCN(C)C(C)Cc1ccc(F)cc1 (single isomer, unassigned; (-)) [(-)-p-FLUORO-D]
IC50 [2, 11]: 29 µM
IC50 [3]: 13 µM

C#CCN(C)[C@@H](C)Cc1ccc(F)cc1 [(+)-p-FLUORO-D]
IC50 [2, 11]: 16 µM
IC50 [3]: 6.1 µM

C#CCN(C)[C@H](C)Cc1ccccc1 [(-)-deprenyl, (-)N-(-1-phenyl-isopropyl)-N-methyl-propinylamine-hydrochloride]
effect on MPTP induced neuronal damage [5]: can be prevented
inhibition of MAO activity (%) brain 14C-5-HT (MAO-A [6]): 20.14 ± 6.0%
prevention of the neurotoxicity of DSP-4 (DSP-4 neurotoxicity [7]): can prevent
inhibition of MAO activity (%) liver 14C-5-HT (MAO-A [8]): 10.45 ± 6.4%

CN[C@H](C)Cc1ccccc1 [(-)-metamphetamine]
Na content of hippocampus in % ± S.D. (DSP-4 neurotoxicity [4]; [12]): 61 ± 3.5%
Survival % (DSP-4 neurotoxicity [4]; [12]): 100%
Na content of hippocampus in % ± S.D. (DSP-4 neurotoxicity [4]; [13]): 116 ± 2.1%
Survival % (DSP-4 neurotoxicity [4]; [13]): 63%
Survival % (DSP-4 neurotoxicity [4]; [10]): 0%

NC/C(=C/F)CCc1ccc(F)cc1 [MDL 72974A, (E)-4-fluoro-beta-fluoro-ethylene benzene butamine]
effect on DSP-4 induced toxicity / NA depletion (DSP-4 induced toxicity): fails to prevent DSP-4 induced toxicity

CN1CC=C(c2ccccc2)CC1 [MPTP, 1-methyl-4-phenyl-1,2,3,6-tetrahydropyridine]
DOPAC (MPTP neurotoxicity; [14]): 0.7 ± 0.04
HVA (homovanillic acid) (MPTP neurotoxicity; [14]): 1.3 ± 0.07
DOPAC % (MPTP neurotoxicity; [15]): 77%
Dopamine % (MPTP neurotoxicity; [15]): 53%
HVA (homovanillic acid) (MPTP neurotoxicity; [15]): 79%
Dopamine (MPTP neurotoxicity; [16]): 8.0 ± 0.5

OC1(c2ccc(Cl)cc2)c2ccccc2C2=NCCN21 (stereo not drawn) [Mazindol]
effect on MPTP induced neuronal damage [5]: can be retarded
DOPAC (MPTP neurotoxicity; [14]): 1.1 ± 0.08
DOPAC % (MPTP neurotoxicity; [15]): 122%
Dopamine % (MPTP neurotoxicity; [15]): 98%
Dopamine (MPTP neurotoxicity; [16]): 14.0 ± 0.8

C#CCN(C)Cc1ccccc1 [Pargyline]
DOPAC (MPTP neurotoxicity; [14]): 0.5 ± 0.04
HVA (homovanillic acid) (MPTP neurotoxicity; [14]): 0.9 ± 0.09
DOPAC % (MPTP neurotoxicity; [15]): 55%
Dopamine % (MPTP neurotoxicity; [15]): 47%
HVA (homovanillic acid) (MPTP neurotoxicity; [15]): 64%
Dopamine (MPTP neurotoxicity; [16]): 7.1 ± 0.6
DOPAC (MPTP neurotoxicity; [17]): 1.0 ± 0.06
HVA (homovanillic acid) (MPTP neurotoxicity; [17]): 1.4 ± 0.06
Dopamine (MPTP neurotoxicity; 1. treatment the substance, 2. treatment MPTP (pretreatment)): 13.8 ± 0.5
DOPAC % (MPTP neurotoxicity; [18]): 111%
Dopamine % (MPTP neurotoxicity; [18]): 91%
HVA (homovanillic acid) (MPTP neurotoxicity; [18]): 100%

CC(N)Cc1ccccc1 (stereo not drawn) [amphetamine]
prevention of MPTP neurotoxicity in vivo (MPTP neurotoxicity): can prevent
prevention of DSP-4 induced neurotoxicity in vivo (DSP-4 neurotoxicity [4]): able to prevent
uptake inhibitory potency [1]: significant

CNCCCN1c2ccccc2CCc2ccccc21 [desipramine, 10,11-Dihydro-N-methyl-5-H-dibenz(6,7)azepine-5-propanamine]
effect on DSP-4 induced toxicity / NA depletion (DSP-4 induced toxicity): inhibit the NA-depleting effect of DSP-4

CC(N)Cc1ccc(F)cc1 (stereo not drawn) [p-fluoro-amphetamine]
prevention of MPTP neurotoxicity in vivo (MPTP neurotoxicity): can prevent
prevention of DSP-4 induced neurotoxicity in vivo (DSP-4 neurotoxicity [4]): able to prevent
uptake inhibitory potency [1]: significant

C#CCN(C)C(C)Cc1ccc(F)cc1 (stereo not drawn) [p-fluoro-deprenyl]
time in which the unchanged compound was absorbed [9]: 15 min

Reference: US5589513A, “Pharmaceutical composition and process for the preparation thereof” (Chinoin Gyogyszer es Vegyeszeti Termekek Gyara Rt., priority 1991, dated 1996)
